Assay results from PubChem BioAssay (NCI).
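Five concentrations, 48 hours, 96-well plates. The concentration for full growth arrest is given as TGI.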

Legend:
Experiment in all cases: NCI anticancer screen, dose series, 48 h
[1] = test system: SF-539 CNS
[2] = test system: UACC-62 melanoma
[3] = test system: OVCAR-5 ovarian
[4] = test system: SK-MEL-5 melanoma
[5] = test system: NCI-H23 lung
[6] = test system: COLO 205 colon
[7] = test system: EKVX NSCLC
[8] = test system: HL-60(TB) leukemia
[9] = test system: DMS 114 small cell lung
[10] = test system: SF-295 CNS
[11] = test system: SK-MEL-28 melanoma
[12] = test system: IGROV1 ovarian
[13] = test system: CCRF-CEM leukemia
[14] = test system: A498 renal
[15] = test system: OVCAR-8 ovarian
[16] = test system: M19-MEL melanoma
[17] = test system: HCT-116 colon
[18] = test system: MALME-3M melanoma
[19] = test system: XF 498 CNS
[20] = test system: HT29 colon
[21] = test system: HOP-92 NSCLC
[22] = test system: SW-620 colon
[23] = test system: HCT-15 colon
[24] = test system: NCI-H460 lung
[25] = test system: LOX IMVI melanoma
[26] = test system: M14 melanoma
[27] = test system: HCC-2998 colon
[28] = test system: HOP-18 NSCLC
[29] = test system: SNB-78 CNS
[30] = test system: NCI-H226 lung
[31] = test system: ACHN renal
[32] = test system: RXF-631 renal
[33] = test system: OVCAR-4 ovarian
[34] = test system: SK-OV-3 ovarian
[35] = test system: CAKI-1 renal
[36] = test system: A549 NSCLC
[37] = test system: K-562 leukemia
[38] = test system: SK-MEL-2 melanoma
[39] = test system: U251 CNS
[40] = test system: LXFL 529 NSCLC
[41] = test system: NCI-H522 lung
[42] = test system: TK-10 renal
[43] = test system: 786-0 renal
[44] = test system: SF-268 CNS
[45] = test system: KM12 colon
[46] = test system: UO-31 renal
[47] = test system: MOLT-4 leukemia
[48] = test system: DLD-1 colon
[49] = test system: SN12C renal
[50] = test system: UACC-257 melanoma
[51] = test system: RPMI-8226 leukemia
[52] = test system: SR leukemia
[53] = test system: SNB-75 CNS
[54] = test system: OVCAR-3 ovarian
[55] = test system: RXF 393 renal
[56] = test system: HOP-62 NSCLC
[57] = test system: KM20L2 colon
[58] = test system: SNB-19 CNS
[59] = test system: DMS 273 small cell lung
[60] = test system: DU-145 prostate

For O=C(/C=C/c1ccc(-c2ccccc2)cc1)c1ccccc1, the TGI [1] was 32.2 µM, the TGI [2] was 50 µM and the TGI [3] was 41 µM. The TGI [4] was 49 µM, the TGI [5] was 41.8 µM and the TGI [6] was 52.7 µM. The TGI [7] was 50.8 µM, the TGI [8] was over 100 µM and the TGI [9] was 31.8 µM. For the same molecule, the TGI [10] was over 100 µM, the TGI [11] was 67.5 µM and the TGI [12] was 69.1 µM. For the same molecule, the TGI [13] was over 100 µM, the TGI [14] was 45.7 µM and the TGI [15] was 33.8 µM. For the same molecule, the TGI [16] was 48.5 µM, the TGI [17] was 30.2 µM and the TGI [18] was over 100 µM. For the same molecule, the TGI [19] was 53.1 µM, the TGI [20] was 52.1 µM and the TGI [21] was 51.7 µM. The TGI [22] was 42.7 µM, the TGI [23] was 54.9 µM and the TGI [24] was 50.9 µM. The TGI [25] was 29.2 µM, the TGI [26] was over 100 µM and the TGI [27] was 33.7 µM. It also gave a TGI [28] of over 100 µM, a TGI [29] of over 100 µM and a TGI [30] of 49.3 µM. For the same molecule, the TGI [31] was over 100 µM, the TGI [32] was 69 µM and the TGI [33] was over 100 µM. The TGI [34] was 58.5 µM, the TGI [35] was over 100 µM and the TGI [36] was 56.3 µM. It also gave a TGI [37] of over 100 µM, a TGI [38] of 33.6 µM and a TGI [39] of 58.5 µM. For the same molecule, the TGI [40] was 42.2 µM, the TGI [41] was 35.4 µM and the TGI [42] was 82.6 µM. For the same molecule, the TGI [43] was 50.9 µM, the TGI [44] was 70.1 µM and the TGI [45] was 40.6 µM. The TGI [46] was over 100 µM, the TGI [47] was over 100 µM and the TGI [48] was over 100 µM. It also gave a TGI [49] of over 100 µM, a TGI [50] of over 100 µM and a TGI [51] of 61.8 µM. It also gave a TGI [52] of 87.1 µM and a TGI [53] of over 100 µM.
CCOC(=O)NC(=O)c1cn(C2CCCCC2)c(=O)n(C)c1=O showed a TGI [1] of over 100 µM, a TGI [2] of over 100 µM and a TGI [3] of over 100 µM. The TGI [4] was over 100 µM, the TGI [54] was over 100 µM and the TGI [5] was over 100 µM. For the same molecule, the TGI [55] was over 100 µM, the TGI [6] was over 100 µM and the TGI [8] was over 100 µM. For the same molecule, the TGI [9] was over 100 µM, the TGI [10] was over 100 µM and the TGI [11] was over 100 µM. It also gave a TGI [12] of over 100 µM, a TGI [13] of over 100 µM and a TGI [14] of over 100 µM. The TGI [15] was over 100 µM, the TGI [16] was over 100 µM and the TGI [17] was over 100 µM. The TGI [18] was over 100 µM, the TGI [20] was over 100 µM and the TGI [21] was over 100 µM. For the same molecule, the TGI [22] was over 100 µM, the TGI [23] was over 100 µM and the TGI [24] was over 100 µM. It also gave a TGI [25] of over 100 µM, a TGI [26] of over 100 µM and a TGI [27] of over 100 µM. The TGI [28] was over 100 µM, the TGI [29] was over 100 µM and the TGI [30] was over 100 µM. The TGI [31] was over 100 µM, the TGI [32] was over 100 µM and the TGI [33] was over 100 µM. It also gave a TGI [34] of over 100 µM, a TGI [35] of over 100 µM and a TGI [36] of over 100 µM. It also gave a TGI [37] of over 100 µM, a TGI [38] of over 100 µM and a TGI [39] of over 100 µM. The TGI [56] was over 100 µM, the TGI [40] was over 100 µM and the TGI [41] was over 100 µM. For the same molecule, the TGI [42] was over 100 µM, the TGI [57] was over 100 µM and the TGI [43] was over 100 µM. The TGI [44] was over 100 µM, the TGI [45] was over 100 µM and the TGI [46] was over 100 µM. It also gave a TGI [47] of over 100 µM, a TGI [48] of over 100 µM and a TGI [58] of over 100 µM. It also gave a TGI [49] of over 100 µM, a TGI [50] of over 100 µM and a TGI [51] of over 100 µM. For the same molecule, the TGI [52] was over 100 µM, the TGI [53] was over 100 µM and the TGI [59] was over 100 µM.
For COc1cccc(/C=C2\N=C(Cl)OC2=O)c1O, the TGI [1] was over 100 µM, the TGI [2] was over 100 µM and the TGI [3] was over 100 µM. The TGI [4] was over 100 µM, the TGI [54] was over 100 µM and the TGI [5] was over 100 µM. It also gave a TGI [55] of over 100 µM, a TGI [6] of over 100 µM and a TGI [7] of over 100 µM. For the same molecule, the TGI [8] was over 100 µM, the TGI [9] was over 100 µM and the TGI [10] was over 100 µM. It also gave a TGI [11] of over 100 µM, a TGI [12] of over 100 µM and a TGI [13] of over 100 µM. The TGI [14] was over 100 µM, the TGI [15] was over 100 µM and the TGI [17] was over 100 µM. It also gave a TGI [18] of over 100 µM, a TGI [19] of over 100 µM and a TGI [20] of over 100 µM. The TGI [21] was over 100 µM, the TGI [22] was over 100 µM and the TGI [23] was over 100 µM. The TGI [24] was over 100 µM, the TGI [25] was over 100 µM and the TGI [26] was over 100 µM. It also gave a TGI [27] of over 100 µM, a TGI [28] of over 100 µM and a TGI [29] of over 100 µM. For the same molecule, the TGI [30] was over 100 µM, the TGI [31] was over 100 µM and the TGI [33] was over 100 µM. The TGI [34] was over 100 µM, the TGI [35] was over 100 µM and the TGI [36] was over 100 µM. For the same molecule, the TGI [37] was over 100 µM, the TGI [38] was over 100 µM and the TGI [39] was over 100 µM. The TGI [56] was over 100 µM, the TGI [40] was over 100 µM and the TGI [41] was over 100 µM. For the same molecule, the TGI [42] was over 100 µM, the TGI [57] was over 100 µM and the TGI [43] was over 100 µM. For the same molecule, the TGI [60] was over 100 µM, the TGI [44] was over 100 µM and the TGI [45] was over 100 µM. For the same molecule, the TGI [46] was over 100 µM, the TGI [47] was over 100 µM and the TGI [48] was over 100 µM. For the same molecule, the TGI [58] was over 100 µM, the TGI [49] was over 100 µM and the TGI [50] was over 100 µM. It also gave a TGI [51] of over 100 µM, a TGI [52] of over 100 µM and a TGI [53] of over 93.3 µM. For the same molecule, the TGI [59] was over 100 µM.
CC(C)(Oc1ccc2c(=O)cc(-c3ccc(Cl)cc3)oc2c1)C(=O)Nc1c(Cl)cccc1Cl was tested, and the TGI [1] was over 100 µM, the TGI [2] was over 100 µM and the TGI [3] was over 100 µM. For the same molecule, the TGI [4] was over 100 µM, the TGI [54] was over 100 µM and the TGI [5] was over 100 µM. It also gave a TGI [7] of over 100 µM, a TGI [8] of over 100 µM and a TGI [9] of over 100 µM. For the same molecule, the TGI [10] was over 100 µM, the TGI [11] was over 100 µM and the TGI [12] was over 100 µM. For the same molecule, the TGI [13] was over 100 µM, the TGI [14] was over 100 µM and the TGI [15] was over 100 µM. For the same molecule, the TGI [16] was over 100 µM, the TGI [17] was over 100 µM and the TGI [18] was over 100 µM. It also gave a TGI [19] of over 100 µM, a TGI [20] of over 100 µM and a TGI [21] of over 100 µM. It also gave a TGI [22] of over 100 µM, a TGI [23] of over 100 µM and a TGI [24] of over 100 µM. It also gave a TGI [25] of over 100 µM, a TGI [26] of over 100 µM and a TGI [28] of over 100 µM. The TGI [29] was over 100 µM, the TGI [34] was over 100 µM and the TGI [35] was over 100 µM. It also gave a TGI [36] of over 100 µM, a TGI [37] of over 100 µM and a TGI [38] of over 100 µM. It also gave a TGI [39] of over 100 µM, a TGI [56] of over 100 µM and a TGI [40] of over 100 µM. For the same molecule, the TGI [41] was over 100 µM, the TGI [42] was over 100 µM and the TGI [57] was over 100 µM. For the same molecule, the TGI [43] was over 100 µM, the TGI [44] was over 100 µM and the TGI [45] was over 100 µM. The TGI [46] was over 100 µM, the TGI [47] was over 100 µM and the TGI [48] was over 100 µM. It also gave a TGI [58] of over 100 µM, a TGI [50] of over 100 µM and a TGI [51] of over 100 µM. It also gave a TGI [52] of over 100 µM and a TGI [59] of over 100 µM.
